Measured values reported in ChEMBL document CHEMBL5120753, “Isolation and biological activity of azocine and azocane alkaloids” (Bioorg Med Chem, 2022).
Converted amounts (≈) assume the structure as drawn.

Columns and labels:
Plasmodium falciparum [1] = experiment: Antiplasmodial activity against Plasmodium falciparum 3D7 infected in human erythrocytes assessed as cell growth inhibition incubated for 72 hrs by parasite lactate dehydrogenase assay; type: functional, organism-based; settings: 3D7, 72 h
[2] = target: Replicase polyprotein 1ab (Severe acute respiratory syndrome coronavirus 2) (UniProt P0DTD1); experiment: Binding affinity to SARS-CoV-2 3C-like protease assessed as change in gibbs free energy
Plasmodium falciparum [3] = experiment: Antiplasmodial activity against chloroquine sensitive Plasmodium falciparum D6 assessed as cell growth inhibition; type: functional, organism-based
Plasmodium falciparum [4] = experiment: Antiplasmodial activity against chloroquine sensitive Plasmodium falciparum W2 assessed as cell growth inhibition; type: functional, organism-based
[5] = Antagonist activity at serotonin receptor in rat aortic strips assessed as receptor mediated anti-serotoninergic activity; settings: read-out: pA2 (converted)
[6] = Antagonist activity at alpha-adrenergic receptor in rat aortic strips assessed as receptor mediated adrenolytic activity; settings: read-out: pA2 (converted)
[7] = Cytotoxicity against multidrug resistant human VJ300 cells expressing P-gp assessed as cell growth inhibition measured after 72 hrs by MTT assay; type: functional, cell-based; settings: VJ-300, 72 h
B16 = experiment: Cytotoxicity against mouse B16 cells assessed as cell growth inhibition measured after 72 hrs by MTT assay; type: functional, cell-based; settings: B16, 72 h
Corynebacterium xerosis = experiment: Antibacterial activity against Corynebacterium xerosis assessed as bacterial growth inhibition; type: functional
L1210 = experiment: Cytotoxicity against mouse L1210 cells assessed as cell growth inhibition; type: functional, cell-based
[8] = target: Cyclin-dependent kinase 4 (Homo sapiens, UniProt P11802); experiment: Inhibition of CDK4 (unknown origin)
[9] = system: Trichophyton mentagrophytes; experiment: […] activity against Trichophyton mentagrophytes assessed as […]; type: functional
N2a = experiment: Neuroprotective activity against paraquat induced mouse Neuro2a cells assessed as reduction in cell viability at 1 uM pretreated for 1 hr followed by paraquat addition measured after 24 hrs by MTT method relative to control; type: functional; settings: time 25 hrs
Proteus mirabilis = experiment: Antibacterial activity against Proteus mirabilis assessed as inhibition of bacterial growth incubated for 18 to 24 hrs; type: functional; settings: time 18-24 hrs
[10] = Antioxidant activity assessed as free radical scavenging activity incubated for 30 mins by DPPH assay; type: functional
[11] = system: Staphylococcus epidermidis; experiment: Antibacterial activity against Staphylococcus epidermidis assessed as inhibition of bacterial growth incubated for 18 to 24 hrs; type: functional; settings: time 18-24 hrs
[12] = system: Lactiplantibacillus plantarum; experiment: Antibacterial activity against Lactobacillus plantarum assessed as inhibition of bacterial growth incubated for 18 to 24 hrs; type: functional; settings: time 18-24 hrs
HepG2 = experiment: Cytotoxicity against human HepG2 cells assessed as cell growth inhibition at 0.9 uM measured after 48 hrs by MTT assay relative to control; type: functional; parameters: scale not given: the % may be the effect or the level left
SMMC-7721 = experiment: Cytotoxicity against human SMMC-7721 cells assessed as cell growth inhibition at 0.9 uM measured after 48 hrs by MTT assay relative to control; type: functional; parameters: scale not given: the % may be the effect or the level left
[13] = Toxicity in iv dosed Swiss-Webster mouse assessed as lethal dose at 7.5 ml/kg, iv administered through tail vein injection by Litchfield-Wilcoxon method; type: organism-based; settings: in vivo
MCF7 = experiment: Cytotoxicity against human MCF7 cells assessed as cell growth inhibition measured after 48 hrs by MTT assay; type: functional, cell-based; settings: MCF7, 48 h
[14] = Toxicity in iv dosed rat assessed as lethal dose; settings: in vivo
[15] = system: Mycobacterium tuberculosis; experiment: Antimycobacterial activity against Mycobacterium tuberculosis H37Rv ATCC 27294 assessed as inhibition of bacterial growth by microplate alamar blue assay; type: functional
MG-63 = experiment: Cytotoxicity against human MG-63 cells assessed as cell growth inhibition incubated for 48 hrs by microplate reader based analysis; type: functional; settings: MG-63, 48 h
[16] = Cytotoxicity against human SOSP-9607 cells assessed as cell growth inhibition incubated for 48 hrs by microplate reader based analysis; type: functional; settings: SOSP-9607, 48 h
SAOS-2 = experiment: Cytotoxicity against human SAOS-2 cells assessed as cell growth inhibition incubated for 48 hrs by microplate reader based analysis; type: functional; settings: SAOS-2, 48 h
U2OS = experiment: Cytotoxicity against human U2OS cells assessed as cell growth inhibition incubated for 48 hrs by microplate reader based analysis; type: functional
[17] = Cytotoxicity against vincristine resistant human VJ300 cells assessed as cell growth inhibition; type: functional, cell-based; settings: VJ-300
KB = experiment: Cytotoxicity against human KB cells assessed as cell growth inhibition; type: functional, cell-based
[18] = target: Prostaglandin G/H synthase 2 (Homo sapiens) (UniProt P35354); experiment: Inhibition of COX-2 (unknown origin) using arachidonic acid as substrate at 100 uM preincubated for 5 mins followed by substrate addition measured after 15 mins by absorbance based analysis relative to control; settings: time 20.0 min
[19] = Displacement of [3H]-naloxone from opiate receptor in rat cortical brain membrane assessed as inhibition constant incubated for 30 mins by liquid scintillation counter analysis; type: cell membranes
[20] = target: Polyunsaturated fatty acid 5-lipoxygenase (Homo sapiens) (UniProt P09917); experiment: Inhibition of 5-LOX (unknown origin) using arachidonic acid as substrate at 100 uM preincubated for 5 mins followed by substrate addition measured after 15 mins by absorbance based analysis relative to control; settings: time 20.0 min
[21] = target: Prostaglandin G/H synthase 1 (Homo sapiens) (UniProt P23219); experiment: Inhibition of COX-1 (unknown origin) using arachidonic acid as substrate at 100 uM preincubated for 5 mins followed by substrate addition measured after 15 mins by absorbance based analysis relative to control; settings: time 20.0 min
Leishmania infantum = experiment: Antileishmanial activity against Leishmania infantum PB75 assessed as cell growth inhibition measured after 72 hrs by MTT assay; type: functional
Plasmodium falciparum [22] = experiment: Antiplasmodial activity against chloroquine-sensitive Plasmodium falciparum 3D7 assessed as cell growth inhibition incubated for 24 hrs by [3H]-hypoxanthine based scintillation counter analysis; type: functional, organism-based
[23] = Induction of nitric oxide production in Rabbit aortic endothelial cell at 0.1 ug/ml measured after 48 hrs by […] analysis; type: functional, Oryctolagus cuniculus; settings: dose 0.1 µg/ml
Acetylcholinesterase = Acetylcholinesterase (Homo sapiens, UniProt P22303); experiment: Inhibition of human acetylcholinesterase
Cholinesterase = Cholinesterase (Homo sapiens, UniProt P06276); experiment: Inhibition of human BChE
[24] = Inhibition of human beta-secretase
Plasmodium falciparum [25] = experiment: Antiplasmodial activity against chloroquine-resistant Plasmodium falciparum W2 assessed as cell growth inhibition incubated for 24 hrs by [3H]-hypoxanthine based scintillation counter analysis; type: functional, organism-based
B16-F10 = experiment: Induction of nitric oxide production in mouse B16-F10 cells at 1 ug/ml measured after 48 hrs by […] analysis; type: functional; settings: dose 1 µg/ml

Prostaglandin G/H synthase 2 (Homo sapiens), sequence (P35354 whole entry): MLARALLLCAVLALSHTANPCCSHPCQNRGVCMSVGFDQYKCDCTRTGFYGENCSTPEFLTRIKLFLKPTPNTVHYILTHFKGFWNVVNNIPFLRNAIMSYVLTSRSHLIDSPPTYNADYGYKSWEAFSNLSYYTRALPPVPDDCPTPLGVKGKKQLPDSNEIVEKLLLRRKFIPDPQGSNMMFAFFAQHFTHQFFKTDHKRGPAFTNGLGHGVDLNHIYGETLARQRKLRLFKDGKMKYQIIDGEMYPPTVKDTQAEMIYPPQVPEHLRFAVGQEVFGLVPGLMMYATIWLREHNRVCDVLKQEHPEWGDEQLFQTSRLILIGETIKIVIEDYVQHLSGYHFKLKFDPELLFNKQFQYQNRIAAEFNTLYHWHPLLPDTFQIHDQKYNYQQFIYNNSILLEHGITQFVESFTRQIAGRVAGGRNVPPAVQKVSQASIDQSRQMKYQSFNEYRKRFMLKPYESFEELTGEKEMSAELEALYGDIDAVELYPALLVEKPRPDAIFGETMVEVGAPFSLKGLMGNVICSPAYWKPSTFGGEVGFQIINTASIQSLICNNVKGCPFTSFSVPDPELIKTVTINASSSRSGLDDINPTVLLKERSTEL
Polyunsaturated fatty acid 5-lipoxygenase (Homo sapiens), sequence (P09917 whole entry): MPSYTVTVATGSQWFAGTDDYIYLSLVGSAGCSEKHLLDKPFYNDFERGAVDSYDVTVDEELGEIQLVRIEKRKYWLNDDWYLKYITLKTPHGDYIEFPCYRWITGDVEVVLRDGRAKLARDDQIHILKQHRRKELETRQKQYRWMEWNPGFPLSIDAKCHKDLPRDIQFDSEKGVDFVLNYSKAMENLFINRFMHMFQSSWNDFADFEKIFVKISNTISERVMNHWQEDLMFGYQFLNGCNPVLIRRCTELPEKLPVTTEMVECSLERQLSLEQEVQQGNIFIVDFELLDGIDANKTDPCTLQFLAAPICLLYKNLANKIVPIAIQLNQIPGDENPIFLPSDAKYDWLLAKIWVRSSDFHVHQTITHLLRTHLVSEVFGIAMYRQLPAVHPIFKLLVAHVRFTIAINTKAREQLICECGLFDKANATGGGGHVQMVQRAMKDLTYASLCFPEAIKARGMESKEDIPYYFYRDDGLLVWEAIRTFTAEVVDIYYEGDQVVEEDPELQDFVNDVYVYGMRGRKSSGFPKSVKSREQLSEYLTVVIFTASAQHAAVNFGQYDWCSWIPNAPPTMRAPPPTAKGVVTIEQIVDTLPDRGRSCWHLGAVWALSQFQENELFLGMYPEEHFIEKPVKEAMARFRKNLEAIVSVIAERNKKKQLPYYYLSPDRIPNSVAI
Prostaglandin G/H synthase 1 (Homo sapiens), sequence (P23219 whole entry): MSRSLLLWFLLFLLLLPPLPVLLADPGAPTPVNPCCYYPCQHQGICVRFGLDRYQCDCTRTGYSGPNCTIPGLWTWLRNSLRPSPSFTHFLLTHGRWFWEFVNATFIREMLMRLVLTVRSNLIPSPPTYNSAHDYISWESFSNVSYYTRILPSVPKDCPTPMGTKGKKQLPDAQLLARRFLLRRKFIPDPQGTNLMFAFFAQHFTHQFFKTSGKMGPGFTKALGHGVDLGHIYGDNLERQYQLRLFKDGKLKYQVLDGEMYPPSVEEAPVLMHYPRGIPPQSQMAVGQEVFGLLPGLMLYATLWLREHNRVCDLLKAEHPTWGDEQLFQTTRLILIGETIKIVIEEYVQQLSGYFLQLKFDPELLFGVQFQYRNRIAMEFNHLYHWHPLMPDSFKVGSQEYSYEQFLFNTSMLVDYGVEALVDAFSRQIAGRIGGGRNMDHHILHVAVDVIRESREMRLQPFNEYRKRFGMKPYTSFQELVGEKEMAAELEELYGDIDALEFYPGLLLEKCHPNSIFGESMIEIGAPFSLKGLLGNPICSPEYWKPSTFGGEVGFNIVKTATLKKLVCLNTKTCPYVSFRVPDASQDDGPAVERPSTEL
Cholinesterase, sequence (P06276 whole entry): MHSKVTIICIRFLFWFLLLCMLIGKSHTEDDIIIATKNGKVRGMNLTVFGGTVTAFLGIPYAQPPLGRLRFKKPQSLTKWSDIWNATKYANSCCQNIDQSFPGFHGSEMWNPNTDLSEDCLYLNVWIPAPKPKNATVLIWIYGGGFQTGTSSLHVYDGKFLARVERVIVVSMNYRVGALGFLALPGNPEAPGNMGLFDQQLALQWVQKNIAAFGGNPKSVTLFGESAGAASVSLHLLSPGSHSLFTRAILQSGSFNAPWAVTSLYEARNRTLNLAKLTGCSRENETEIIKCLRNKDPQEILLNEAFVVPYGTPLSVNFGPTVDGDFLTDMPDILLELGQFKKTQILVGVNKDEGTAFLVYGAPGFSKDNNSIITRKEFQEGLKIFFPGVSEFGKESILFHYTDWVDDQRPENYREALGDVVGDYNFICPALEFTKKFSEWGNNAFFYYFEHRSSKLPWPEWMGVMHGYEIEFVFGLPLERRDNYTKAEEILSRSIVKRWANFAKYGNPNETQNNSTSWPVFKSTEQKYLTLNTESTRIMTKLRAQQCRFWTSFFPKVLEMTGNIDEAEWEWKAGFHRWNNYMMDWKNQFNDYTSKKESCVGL
Acetylcholinesterase, sequence (P22303 whole entry): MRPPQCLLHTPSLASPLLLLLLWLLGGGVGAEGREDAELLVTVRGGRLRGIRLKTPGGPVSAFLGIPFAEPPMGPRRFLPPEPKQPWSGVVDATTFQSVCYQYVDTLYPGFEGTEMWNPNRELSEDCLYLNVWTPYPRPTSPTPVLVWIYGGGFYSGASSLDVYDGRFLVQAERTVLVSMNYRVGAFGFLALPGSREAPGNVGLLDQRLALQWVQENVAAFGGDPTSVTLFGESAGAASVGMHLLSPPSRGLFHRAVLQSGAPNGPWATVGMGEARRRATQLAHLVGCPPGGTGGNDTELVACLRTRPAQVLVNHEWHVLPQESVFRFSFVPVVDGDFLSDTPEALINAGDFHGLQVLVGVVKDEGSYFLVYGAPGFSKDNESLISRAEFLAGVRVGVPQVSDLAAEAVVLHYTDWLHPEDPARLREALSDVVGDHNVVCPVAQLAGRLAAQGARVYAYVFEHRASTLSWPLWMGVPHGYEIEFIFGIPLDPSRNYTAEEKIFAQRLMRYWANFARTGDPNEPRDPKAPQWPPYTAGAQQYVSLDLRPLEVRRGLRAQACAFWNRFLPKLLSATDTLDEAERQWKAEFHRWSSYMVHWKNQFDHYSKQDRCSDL
Cyclin-dependent kinase 4, sequence (P11802 whole entry): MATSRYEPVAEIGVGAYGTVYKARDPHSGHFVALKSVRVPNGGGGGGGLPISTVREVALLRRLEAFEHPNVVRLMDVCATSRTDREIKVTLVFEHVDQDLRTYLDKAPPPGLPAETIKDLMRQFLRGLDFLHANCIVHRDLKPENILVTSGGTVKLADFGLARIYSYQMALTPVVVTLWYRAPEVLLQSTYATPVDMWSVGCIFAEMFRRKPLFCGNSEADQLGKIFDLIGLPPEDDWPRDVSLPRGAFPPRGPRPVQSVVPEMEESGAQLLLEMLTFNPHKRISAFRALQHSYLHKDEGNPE

Compound: COc1cc([C@H]2Oc3ccc4[nH]cc5c4c3[C@@H]2C(=O)NCC5)ccc1OC(=O)C(C)(C)C
- IC50 (Plasmodium falciparum [1]): 123 µM

Compound: O=C1NCCc2c[nH]c3ccc4c(c23)[C@H]1[C@@H](c1ccc2c(c1)OCO2)O4
- deltaG [2]: -9.1 kcal/mol
- IC50 (Plasmodium falciparum [3]): 3.93 µg/mL (≈ 11.3 µM)
- IC50 (Plasmodium falciparum [4]): 4.41 µg/mL (≈ 12.7 µM)

Compound: CN1CCc2ccccc2-c2cc(O)c(O)cc2C1
- Kb [5]: 3.02 µM
- Kb [6]: 0.02 µM

Compound: C=C1CC[C@@]23CC[C@@]45C(C2)[C@]4(CCN13)c1cc(OC)ccc1N5C(=O)OC
- IC50 [7]: 4.6 µg/mL (≈ 12.6 µM)
- IC50 (B16): 7.2 µg/mL (≈ 19.6 µM)

Compound: C1=C\CCc2cc3c(o2)[C@@H]2N4CCCC/C=C\[C@H]4C[C@@]24CN(CCCC/1)CC[C@@H]34
- MIC (Corynebacterium xerosis): 11 µg/mL (≈ 28 µM)
- IC50 (L1210): 1.3 µg/mL (≈ 3.31 µM)
- IC50 [8]: 25.2 µM
- MIC [9]: 23 µg/mL (≈ 58.6 µM)

Compound: CC1(C)/C=C\N2C(=O)C3(O)C(O)CCN3C(=O)[C@@H]2Cc2c1[nH]c1ccccc21 (stereo partly specified)
- Activity (N2a): 38.6%

Compound: COc1cc2c(cc1OC)-c1ccccc1CCN(C)C2
- Kb [5]: 0.102 µM
- Kb [6]: 0.107 µM

Compound: COc1cc([C@H]2Oc3ccc4[nH]cc5c4c3[C@H]2C(=O)NCC5)ccc1O
- MIC (Proteus mirabilis): 1 µg/mL (≈ 2.85 µM)
- IC50 [10]: 3.2 10^-3mg/ml
- MIC [11]: 10 µg/mL (≈ 28.5 µM)
- MIC [12]: 1 µg/mL (≈ 2.85 µM)

Compound: COc1cc2c(cc1OC)[C@@]13CCN4CC5=CCO[C@H]6CC(=O)N2[C@H]1[C@H]6[C@H]5C[C@H]43 [BRUCINE]
- Activity (HepG2): 78.3%
- Activity (SMMC-7721): 92.3%
- LD50 [13]: 12 mg/kg
- IC50 (MCF7): 279 µM

Compound: O=C1C[C@@H]2OCC=C3CN4CC[C@]56c7ccccc7N1[C@H]5[C@H]2[C@H]3C[C@H]46 [STRYCHNINE]
- LD50 [14]: 0.96 mg/kg

Compound: C/C=C1/CN2CC[C@@H]1[C@](CO)(C(=O)OC)c1[nH]c3ccccc3c1C2
- MIC [15]: > 128 µg/mL

Compound: COC(=O)C1=C2Nc3c(O)cccc3[C@]23CC[N+]2(C)C[C@H](C(C)=O)[C@H]1C[C@H]32 (stereo partly specified)
- IC50 (MG-63): 9.2 µM
- IC50 [16]: 9.2 µM
- IC50 (SAOS-2): 9.2 µM
- IC50 (U2OS): 9.2 µM

Compound: C=C1C=C[C@@]23CC[C@@]45C(C2)[C@]4(CCN13)c1cc(OC)ccc1N5C(=O)OC
- IC50 [7]: 4.6 µg/mL (≈ 12.6 µM)
- IC50 (B16): 2.8 µg/mL (≈ 7.68 µM)

Compound: COC(=O)[C@@]12COC[C@@H](O)[C@@]3(CO)[C@@H]1CCN3Cc1c2[nH]c2ccccc12
- IC50 [17]: 7.33 µg/mL (≈ 19.7 µM)
- IC50 (KB): 7.76 µg/mL (≈ 20.8 µM)

Compound: CC[C@H]1[C@@H]2CCN3CC[C@@]4(C(=C2C(=O)OC)Nc2ccccc24)[C@@H]13 [TUBOTAIWINE]
- inhibition [18]: 90.4%
- Ki [19]: 1.65 µM
- inhibition [20]: 69.5%
- inhibition [21]: 60.8%
- MIC [15]: 100 µg/mL (≈ 308 µM)
- GI50 (Leishmania infantum): 5.9 µg/mL (≈ 18.2 µM)

Compound: C=C1c2[nH]c3ccc(OC)cc3c2C2[C@@H](CC)C1CCN2C (stereo partly specified)
- IC50 (Plasmodium falciparum [22]): 11.9 µg/mL (≈ 40.1 µM)
- Activity [23]: 20.9 µM
- IC50 (Acetylcholinesterase): 279 µM
- IC50 (Cholinesterase): 24 µM
- IC50 [24]: 180 µM
- IC50 (Plasmodium falciparum [25]): 0.75 µg/mL (≈ 2.53 µM)
- Activity (B16-F10): 41.1 µM
